According to ChEMBL document CHEMBL1147724, “Synthesis and in vitro antileukemic activity of some new 1,3-(oxytetraethylenoxy)cyclotriphosphazene derivatives” (2006):
In brackets after ≈: the same amount, converted by molar mass. Activity calls are given as the source filed them. The calls are words filed in the database; no cut-off is given here.

Experiments:
Format in all cases: functional
MOLT-4 = assay: Antiproliferative activity against human MOLT4 cell line by MTT assay at 4 ug/ml; details: for IC50: read-out: ID50 (the source's name)
P388 = assay: Antiproliferative activity against mouse P388 cell line by MTT assay at 4 ug/ml; details: for IC50: read-out: ID50 (the source's name)
BALB/3T3 = assay: Antiproliferative activity against BALB/3T3 cell line by MTT assay at 4 ug/ml; details: Mus musculus; for IC50: read-out: ID50 (the source's name)
L1210 = assay: Antiproliferative activity against mouse L1210 cell line by MTT assay at 4 ug/ml; details: for IC50: read-out: ID50 (the source's name)
HL-60 = assay: Antiproliferative activity against human HL60 cell line by MTT assay at 4 ug/ml; details: for IC50: read-out: ID50 (the source's name)

SMILES	IC50 (MOLT-4) [µg/mL]	IC50 (P388) [µg/mL]	IC50 (BALB/3T3) [µg/mL]	IC50 (L1210) [µg/mL]	IC50 (HL-60) [µg/mL]	ID50 (MOLT-4)	ID50 (P388)	ID50 (BALB/3T3)	ID50 (L1210)	ID50 (HL-60)
O=C1c2ccccc2C(=O)c2c(NCCNP34=NP(Oc5ccccc5/C=N\CCCl)(=NP(Oc5ccccc5/C=N\CCCl)(Oc5ccccc5/C=N\CCCl)=N3)OCCOCCOCCOCCO4)cccc21 (stereo not given)	3.08 (≈ 2.7 µM)	2.16 (≈ 1.89 µM)	9.54 (≈ 8.37 µM)	2.69 (≈ 2.36 µM)	2.07 (≈ 1.81 µM)					
O=Cc1ccccc1OP12=NP(Oc3ccccc3C=O)(=NP(Oc3ccccc3C=O)(Oc3ccccc3C=O)=N1)OCCOCCOCCOCCO2 (stereo not given)	3.2 (≈ 3.94 µM)	3.2 (≈ 3.94 µM)	12.1 (≈ 14.9 µM)	3.2 (≈ 3.94 µM)	2.7 (≈ 3.33 µM)					
ClCCNP1(NCCCl)=NP2(NCCCl)=NP(NCCCl)(=N1)OCCOCCOCCOCCO2 (stereo not given)						inactive	inactive	inactive	inactive	inactive
O=Cc1ccccc1OP12=NP(Oc3ccccc3C=O)(Oc3ccccc3C=O)=NP(NCCNc3cccc4c3C(=O)c3ccccc3C4=O)(=N1)OCCOCCOCCOCCO2 (stereo not given)	1.14 (≈ 1.19 µM)	2.9 (≈ 3.03 µM)	33.2 (≈ 34.7 µM)	2.42 (≈ 2.53 µM)	2.23 (≈ 2.33 µM)					
ClCC/N=C\c1ccccc1OP12=NP(Oc3ccccc3/C=N\CCCl)(Oc3ccccc3/C=N\CCCl)=NP(Oc3ccc4ccccc4c3)(=N1)OCCOCCOCCOCCO2 (stereo not given)	3.11 (≈ 3.05 µM)	2.7 (≈ 2.65 µM)		2.43 (≈ 2.39 µM)	2.89 (≈ 2.84 µM)			inactive		
O=Cc1ccccc1OP12=NP(Oc3ccccc3C=O)(Oc3ccccc3C=O)=NP(Oc3ccc4ccccc4c3)(=N1)OCCOCCOCCOCCO2 (stereo not given)	3.09 (≈ 3.71 µM)	2.55 (≈ 3.06 µM)		2.75 (≈ 3.3 µM)	2.81 (≈ 3.37 µM)			inactive		
O=C1c2ccccc2C(=O)c2c(NCCNP34=NP(NCCCl)(=NP(NCCCl)(NCCCl)=N3)OCCOCCOCCOCCO4)cccc21 (stereo not given)	27.2 (≈ 32.8 µM)	19.4 (≈ 23.4 µM)		29.3 (≈ 35.4 µM)	18.9 (≈ 22.8 µM)			inactive		
O=C1c2ccccc2C(=O)c2c(NCCNP34=NP(Cl)(=NP(Cl)(Cl)=N3)OCCOCCOCCOCCO4)cccc21 (stereo not given)	29.6 (≈ 42.4 µM)	32.8 (≈ 46.9 µM)		52.8 (≈ 75.6 µM)	38.3 (≈ 54.8 µM)			inactive		
ClCC/N=C\c1ccccc1OP12=NP(Oc3ccccc3/C=N\CCCl)(=NP(Oc3ccccc3/C=N\CCCl)(Oc3ccccc3/C=N\CCCl)=N1)OCCOCCOCCOCCO2 (stereo not given)	2.1 (≈ 1.99 µM)	3.2 (≈ 3.03 µM)	25.3 (≈ 23.9 µM)	3.2 (≈ 3.03 µM)	2.9 (≈ 2.74 µM)					
